Counter-ions that a name gives are not always drawn.

The target of one assay is T1, MASP-2 (CCP1-CCP2-SP) (Homo sapiens, UniProt O00187).
T1 construct: 15 μL of Enzyme MASP-2 (CCP1-CCP2-SP) in Assay Buffer
The assay is described as follows: Enzymatic assay for MASP-2 inhibitory activity (fluorogenic substrate). Type of assay: biochemical. The gist of the method: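 MASP-2 (CCP1-CCP2-SP) cleaved a fluorogenic substrate based on the C2 cleavage site in 20 mM HEPES pH 7.4, 140 mM NaCl, 0.1% Tween 20 at room temperature. After 20 min the reaction was stopped with 0.1 M acetic acid and fluorescence read. % activity was normalized to DMSO-only and no-enzyme controls; IC50 taken as Ki.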

A further assay deals with T2, human α-thrombin (Homo sapiens, UniProt P00734).
T2 construct: enzyme (human α-thrombin (BioPharm® Lab.)) in assay buffer; purchased BioPharm® Lab
The assay is described as follows: Enzymatic assay for thrombin (fluorogenic peptide substrate Boc-VPR-AMC). The assay is classed as biochemical. The essentials: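 Human α-thrombin was run with the fluorogenic substrate Boc-VPR-AMC in 20 mM Hepes pH 7.4, 140 mM NaCl, 0.1% Tween 20 at room temperature for 20 min, then stopped with 0.1 M acetic acid. % activity was normalized to DMSO and no-enzyme controls. Under linear conditions IC50 equalled Ki, except for tight-binding inhibitors.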

T1 sequence (O00187 445-686 limits assumed): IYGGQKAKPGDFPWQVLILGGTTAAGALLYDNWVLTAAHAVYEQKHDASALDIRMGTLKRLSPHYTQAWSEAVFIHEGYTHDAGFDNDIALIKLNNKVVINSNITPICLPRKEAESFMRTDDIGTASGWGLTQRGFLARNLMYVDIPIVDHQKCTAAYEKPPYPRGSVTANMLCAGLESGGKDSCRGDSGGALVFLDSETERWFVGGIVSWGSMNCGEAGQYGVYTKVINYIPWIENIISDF
T1 sequence (O00187 287-444 partner limits assumed): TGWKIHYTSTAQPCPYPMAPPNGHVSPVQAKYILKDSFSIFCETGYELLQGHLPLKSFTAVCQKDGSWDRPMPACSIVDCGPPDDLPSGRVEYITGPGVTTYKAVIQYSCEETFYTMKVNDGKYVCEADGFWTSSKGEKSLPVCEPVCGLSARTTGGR

As for `O=C(NCc1cc2cnccc2[nH]1)[C@@H]1CCc2c(Cl)nc(NCc3cccc(F)c3)c(=O)n21` [Compound 25, (S)-N-((1H-pyrrolo[3,2-c]pyridin-2-yl)methyl)-1-chloro-3-((3-fluorobenzyl)amino)-4-oxo-4,6,7,8-tetrahydropyrrolo[1,2-a]pyrazine-6-carboxamide], the Ki on MASP-2 (CCP1-CCP2-SP) is below 0.5 µM; at human α-thrombin, 10 to 25 µM.

Turning to `Cc1cc(C)cc(CNc2nc(Cl)c3n(c2=O)[C@H](C(=O)NCc2cc4c(s2)CNC4)CC3)c1` [Compound 31, (S)-1-chloro-N-((5,6-dihydro-4H-thieno[2,3-c]pyrrol-2-yl)methyl)-3-((3,5-dimethylbenzyl)amino)-4-oxo-4,6,7,8-tetrahydropyrrolo[1,2-a]pyrazine-6-carboxamide], the results for the inhibitory constant (Ki) at MASP-2 (CCP1-CCP2-SP) and on human α-thrombin were below 0.5 µM and 2.5 to 10 µM, respectively.

Regarding `O=C(NCc1cc2cnccc2[nH]1)[C@@H]1CCc2c(Cl)nc(NCCC(F)F)c(=O)n21` [Compound 19, (S)-N-((1H-pyrrolo[3,2-c]pyridin-2-yl)methyl)-1-chloro-3-((3,3-difluoropropyl)amino)-4-oxo-4,6,7,8-tetrahydropyrrolo[1,2-a]pyrazine-6-carboxamide], the Ki at MASP-2 (CCP1-CCP2-SP) was below 0.5 µM; at human α-thrombin, above 25 µM.

For `O=C(NCc1cc2cnccc2[nH]1)[C@@H]1CCc2cnc(N3CC(c4ccccc4)C3)c(=O)n21` [Compound 84, (S)-N-((1H-pyrrolo[3,2-c]pyridin-2-yl)methyl)-4-oxo-3-(3-phenylazetidin-1-yl)-4,6,7,8-tetrahydropyrrolo[1,2-a]pyrazine-6-carboxamide], the figures for the inhibition constant Ki on MASP-2 (CCP1-CCP2-SP) and on human α-thrombin were 0.5 to 2.5 µM and 10 to 25 µM, respectively.

`Cc1cc(C)cc(CNc2nc(Cl)c3n(c2=O)[C@H](C(=O)NCc2ccc(N)nc2C)CC3)c1` [Compound 24, trifluoroacetate]: the Ki is below 0.5 µM at MASP-2 (CCP1-CCP2-SP) and 2.5 to 10 µM on human α-thrombin.

As for `Cc1cccc(CNc2nc(Cl)c3n(c2=O)[C@H](C(=O)NCc2cc4c(s2)CNC4)CC3)c1C` [Compound 33, (S)-1-chloro-N-((5,6-dihydro-4H-thieno[2,3-c]pyrrol-2-yl)methyl)-3-((2,3-dimethylbenzyl)amino)-4-oxo-4,6,7,8-tetrahydropyrrolo[1,2-a]pyrazine-6-carboxamide], the results for the Ki on MASP-2 (CCP1-CCP2-SP) and at human α-thrombin were below 0.5 µM and 2.5 to 10 µM, respectively.

As to `Cc1cc(C)cc(CNc2ncc3n(c2=O)[C@H](C(=O)NC(C)c2cc4cnccc4[nH]2)CC3)c1` (stereo partly drawn) [Compound 43, (6S)-N-(1-(1H-pyrrolo[3,2-c]pyridin-2-yl)ethyl)-3-((3,5-dimethylbenzyl)amino)-4-oxo-4,6,7,8-tetrahydropyrrolo[1,2-a]pyrazine-6-carboxamide trifluoroacetate], the values for the Ki at MASP-2 (CCP1-CCP2-SP) and on human α-thrombin were below 0.5 µM and above 25 µM, respectively.

On to `Cc1nc(N)ccc1CNC(=O)[C@@H]1CCc2c(Cl)nc(NCc3cccc(S(C)(=O)=O)c3)c(=O)n21` [Compound 98, (S)—N-((6-amino-2-methylpyridin-3-yl)methyl)-1-chloro-3-((3-(methylsulfonyl)benzyl)amino)-4-oxo-4,6,7,8-tetrahydropyrrolo[1,2-a]pyrazine-6-carboxamide trifluoroacetate], for which the inhibition constant (Ki) was below 0.5 µM on MASP-2 (CCP1-CCP2-SP) and 0.5 to 2.5 µM at human α-thrombin.

Turning to `Cc1cccc(C2(Nc3ncc4n(c3=O)[C@H](C(=O)NCc3cc5cnccc5[nH]3)CC4)CC2)c1` [Compound 111, (S)—N-((1H-pyrrolo[3,2-c]pyridin-2-yl)methyl)-4-oxo-3-((1-(m-tolyl)cyclopropyl)amino)-4,6,7,8-tetrahydropyrrolo[1,2-a]pyrazine-6-carboxamide trifluoroacetate], the Ki on MASP-2 (CCP1-CCP2-SP) was below 0.5 µM; at human α-thrombin, 2.5 to 10 µM.

For the molecule `Cc1ccc(F)c(CNc2ncc3n(c2=O)[C@H](C(=O)NCc2cc4cnc(C)cc4[nH]2)CC3)c1` [Compound 80, (S)-3-((2-fluoro-5-methylbenzyl)amino)-N-((6-methyl-1H-pyrrolo[3,2-c]pyridin-2-yl)methyl)-4-oxo-4,6,7,8-tetrahydropyrrolo[1,2-a]pyrazine-6-carboxamide], the inhibition constant Ki on MASP-2 (CCP1-CCP2-SP) is below 0.5 µM; on human α-thrombin it was 10 to 25 µM.

For the molecule `O=C(NCc1cc(Cl)ccc1-n1cnnn1)[C@@H]1CCc2c(Cl)nc(NCc3ccccc3)c(=O)n21` [Compound 107, (S)-3-(benzylamino)-1-chloro-N-(5-chloro-2-(1H-tetrazol-1-yl)benzyl)-4-oxo-4,6,7,8-tetrahydropyrrolo[1,2-a]pyrazine-6-carboxamide], the inhibition constant Ki is 0.5 to 2.5 µM at MASP-2 (CCP1-CCP2-SP) and below 0.5 µM at human α-thrombin.

As to `Cc1cc(C)cc(CNc2ncc3n(c2=O)[C@H](C(=O)N[C@H](C)c2ccc(N)nc2)CC3)c1` [Compound 198, (S)-N-((R)-1-(6-aminopyridin-3-yl)ethyl)-3-((3,5-dimethylbenzyl)amino)-4-oxo-4,6,7,8-tetrahydropyrrolo[1,2-a]pyrazine-6-carboxamide trifluoroacetate], the Ki on MASP-2 (CCP1-CCP2-SP) was below 0.5 µM; on human α-thrombin, 2.5 to 10 µM.

Take `C[C@H]1C[C@@H](C(=O)NCc2cc3cnccc3[nH]2)n2c1c(Cl)nc(NCc1ccccc1)c2=O` [Compound 130, (6S,8S)—N-((1H-pyrrolo[3,2-c]pyridin-2-yl)methyl)-3-(benzylamino)-1-chloro-8-methyl-4-oxo-4,6,7,8-tetrahydropyrrolo[1,2-a]pyrazine-6-carboxamide]: the Ki at MASP-2 (CCP1-CCP2-SP) was below 0.5 µM; at human α-thrombin, above 25 µM.

With `Cc1cccc(CNc2nc(Cl)c3n(c2=O)[C@H](C(=O)NCc2cc4cnccc4[nH]2)CC3)c1` [Compound 114, (S)-N-((1H-pyrrolo[3,2-c]pyridin-2-yl)methyl)-1-chloro-3-((3-methylbenzyl)amino)-4-oxo-4,6,7,8-tetrahydropyrrolo[1,2-a]pyrazine-6-carboxamide trifluoroacetate], the inhibitory constant (Ki) is below 0.5 µM at MASP-2 (CCP1-CCP2-SP) and 2.5 to 10 µM on human α-thrombin.

As for `O=C(NCc1cc2c(s1)CNC2)[C@@H]1CCc2cnc(N3CC(c4ccccc4)C3)c(=O)n21` [Compound 119, (S)—N-((5,6-dihydro-4H-thieno[2,3-c]pyrrol-2-yl)methyl)-4-oxo-3-(3-phenylazetidin-1-yl)-4,6,7,8-tetrahydropyrrolo[1,2-a]pyrazine-6-carboxamide], the figures for the inhibitory constant (Ki) on MASP-2 (CCP1-CCP2-SP) and at human α-thrombin were 2.5 to 10 µM and above 25 µM, respectively.

`C[C@H]1C[C@@H](C(=O)NCc2cc3cnccc3[nH]2)n2c1cnc(NCc1ccccc1)c2=O` [Compound 152, (6S,8S)-N-((1H-pyrrolo[3,2-c]pyridin-2-yl)methyl)-3-(benzylamino)-8-methyl-4-oxo-4,6,7,8-tetrahydropyrrolo[1,2-a]pyrazine-6-carboxamide]: the inhibitory constant (Ki) was below 0.5 µM on MASP-2 (CCP1-CCP2-SP) and 2.5 to 10 µM on human α-thrombin.

As to `O=C(NCc1cc2c(s1)CNC2)[C@@H]1CCc2cnc(NCC3(Cc4ccccc4)CCCCC3)c(=O)n21` [Compound 252], the Ki is below 0.5 µM on MASP-2 (CCP1-CCP2-SP) and 2.5 to 10 µM on human α-thrombin.

As for `O=C(NCc1cc2cnccc2[nH]1)[C@@H]1CCc2c(Cl)nc(NCc3cccc(C(F)F)c3)c(=O)n21` [Compound 17, (S)-N-((1H-pyrrolo[3,2-c]pyridin-2-yl)methyl)-1-chloro-3-((3-(difluoromethyl)benzyl)amino)-4-oxo-4,6,7,8-tetrahydropyrrolo[1,2-a]pyrazine-6-carboxamide], the Ki on MASP-2 (CCP1-CCP2-SP) was below 0.5 µM; on human α-thrombin it was 10 to 25 µM.

As for `Cc1cc(C)cc(CNc2ncc3n(c2=O)[C@H](C(=O)N[C@@H]2CCc4nc(N)ccc42)CC3)c1` [Compound 186, (S)-N-((R)-2-amino-6,7-dihydro-5H-cyclopenta[b]pyridin-5-yl)-3-((3,5-dimethylbenzyl)amino)-4-oxo-4,6,7,8-tetrahydropyrrolo[1,2-a]pyrazine-6-carboxamide], the Ki at MASP-2 (CCP1-CCP2-SP) and on human α-thrombin was below 0.5 µM in each case.

Turning to `Cc1cccc(CNc2nc(Cl)c3n(c2=O)[C@H](C(=O)NCc2ccc(N)nc2C)CC3)c1F` [Compound 12, (S)-N-((6-amino-2-methylpyridin-3-yl)methyl)-1-chloro-3-((2-fluoro-3-methylbenzyl)amino)-4-oxo-4,6,7,8-tetrahydropyrrolo[1,2-a]pyrazine-6-carboxamide], the figures for the Ki on MASP-2 (CCP1-CCP2-SP) and at human α-thrombin were below 0.5 µM and 2.5 to 10 µM, respectively.

Turning to `N#Cc1nc(NCc2ccccc2)c(=O)n2c1CC[C@H]2C(=O)NCc1cc2cnccc2[nH]1` [Compound 121, (S)—N-((1H-pyrrolo[3,2-c]pyridin-2-yl)methyl)-3-(benzylamino)-1-cyano-4-oxo-4,6,7,8-tetrahydropyrrolo[1,2-a]pyrazine-6-carboxamide trifluoroacetate], the Ki was below 0.5 µM on MASP-2 (CCP1-CCP2-SP) and 10 to 25 µM on human α-thrombin.

Turning to `CCc1cccc([C@@H](CC)Nc2ncc3n(c2=O)[C@H](C(=O)NCc2cc4c(s2)CNC4)CC3)c1` [Compound 268, (S)-N-((5,6-dihydro-4H-thieno[2,3-c]pyrrol-2-yl)methyl)-3-(((R)-1-(3-ethylphenyl)propyl)amino)-4-oxo-4,6,7,8-tetrahydropyrrolo[1,2-a]pyrazine-6-carboxamide trifluoroacetate], the inhibition constant (Ki) at MASP-2 (CCP1-CCP2-SP) and at human α-thrombin was below 0.5 µM each time.

With `Cc1cc(C)cc(CNc2ncc3n(c2=O)[C@H](C(=O)NCc2ccc4[nH]ncc4c2)CC3)c1` [Compound 281, (S)—N-((1H-indazol-5-yl)methyl)-3-((3,5-dimethylbenzyl)amino)-4-oxo-4,6,7,8-tetrahydropyrrolo[1,2-a]pyrazine-6-carboxamide], the Ki was below 0.5 µM at MASP-2 (CCP1-CCP2-SP) and 0.5 to 2.5 µM on human α-thrombin.

With `Cc1cc(C)cc(CNc2ncc3n(c2=O)[C@H](C(=O)NCc2ccc(CN)nc2)CC3)c1` [Compound 109, (S)-N-((6-(aminomethyl)pyridin-3-yl)methyl)-3-((3,5-dimethylbenzyl)amino)-4-oxo-4,6,7,8-tetrahydropyrrolo[1,2-a]pyrazine-6-carboxamide trifluoroacetate], the inhibition constant Ki at MASP-2 (CCP1-CCP2-SP) was below 0.5 µM; on human α-thrombin, 2.5 to 10 µM.

In general, Ki refers to the dissociation constant of the complex between target and ligand, obtained from inhibition or displacement. A high value points to lower affinity.
